Laboratory results reported in ChEMBL document CHEMBL1201862, “PubChem BioAssay data set” (2004).
Several values for one entry are separate records, joined by “and”; a condition that tells them apart may be missing. Equal values may be shown once.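 All cell lines were grown in 96-well plates and treated with compound for 48 hours. GI50 is the concentration that inhibits growth by half.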 Activity calls are given as the source filed them. Rule as the data show it: active = GI50 up to about 1.1 µM and inactive = higher.

Assays:
Assay in all cases: inhibition of tumour cell growth, NCI panel, 48 h
CCRF-CEM = tested on: CCRF-CEM
OVCAR-8 = tested on: OVCAR-8
HOP-62 = tested on: HOP-62
OVCAR-3 = tested on: OVCAR-3
LOX IMVI = tested on: LOX IMVI
A498 = tested on: A498
HOP-92 = tested on: HOP-92
SR = tested on: SR
SK-OV-3 = tested on: SK-OV-3
K562 = tested on: K562
HCT-116 = tested on: HCT-116
HT-29 = tested on: HT-29
UO-31 = tested on: UO-31
M14 = tested on: M14
HCT-15 = tested on: HCT-15
SK-MEL-28 = tested on: SK-MEL-28

C=CCn1c(=S)sc2c(O)ncnc21
GI50 (CCRF-CEM): > 100 µM (inactive) | GI50 (OVCAR-8): > 100 µM (inactive) | GI50 (HOP-62): > 100 µM (inactive) | GI50 (OVCAR-3): > 100 µM (inactive) | GI50 (LOX IMVI): > 100 µM (inactive) | GI50 (A498): > 100 µM (inactive) | GI50 (HOP-92): 94 µM (inactive) | GI50 (SR): > 100 µM (inactive) | GI50 (SK-OV-3): > 100 µM (inactive) | GI50 (K562): > 100 µM (inactive) | GI50 (HCT-116): > 100 µM (inactive) | GI50 (HT-29): > 100 µM (inactive) | GI50 (UO-31): > 100 µM (inactive) | GI50 (M14): > 100 µM (inactive) | GI50 (HCT-15): > 100 µM

Sc1nnc(-c2cccnc2)[nH]1
GI50 (CCRF-CEM): > 100 µM (inactive) | GI50 (HOP-62): > 100 µM (inactive) | GI50 (LOX IMVI): > 100 µM (inactive) | GI50 (A498): > 100 µM (inactive) | GI50 (HOP-92): > 100 µM (inactive) | GI50 (SR): > 100 µM (inactive) | GI50 (SK-OV-3): > 100 µM (inactive) | GI50 (HCT-116): > 100 µM (inactive) | GI50 (HT-29): > 100 µM (inactive) | GI50 (SK-MEL-28): > 100 µM (inactive) | GI50 (M14): > 100 µM (inactive) | GI50 (HCT-15): > 100 µM

COC(=O)C(Cc1nc2ccccc2nc1C)/C(=N\NC(N)=O)C(=O)Nc1cccc([N+](=O)[O-])c1 (stereo unspecified)
GI50 (CCRF-CEM): 29.6 µM (inactive) | GI50 (OVCAR-8): 80.7 µM (inactive) | GI50 (HOP-62): > 100 µM (inactive) | GI50 (OVCAR-3): 51.2 µM (inactive) | GI50 (LOX IMVI): > 100 µM (inactive) | GI50 (A498): > 100 µM (inactive) | GI50 (SR): 24.4 µM (inactive) | GI50 (SK-OV-3): > 100 µM (inactive) | GI50 (K562): 64.3 µM (inactive) | GI50 (HCT-116): > 100 µM (inactive) | GI50 (HT-29): > 100 µM (inactive) | GI50 (SK-MEL-28): > 100 µM (inactive) | GI50 (UO-31): > 100 µM (inactive) | GI50 (M14): > 100 µM (inactive) | GI50 (HCT-15): > 100 µM

Cc1ccc(N2C(=O)/C(=C3\Sc4c(nc(C)[nH]c4=O)N3c3ccccc3)SC2=S)cc1
GI50 (CCRF-CEM): 44.6 µM (inactive) | GI50 (OVCAR-8): 34.6 µM (inactive) | GI50 (HOP-62): 10.4 µM (inactive) | GI50 (OVCAR-3): 18.4 µM (inactive) | GI50 (LOX IMVI): 15.5 µM (inactive) | GI50 (A498): 34.4 µM (inactive) | GI50 (HOP-92): 41.5 µM (inactive) | GI50 (SK-OV-3): 15.8 µM (inactive) | GI50 (K562): 32 µM (inactive) | GI50 (HCT-116): 60.3 µM (inactive) | GI50 (HT-29): 68.9 µM (inactive) | GI50 (SK-MEL-28): > 100 µM (inactive) | GI50 (UO-31): 29.2 µM (inactive) | GI50 (M14): 19.7 µM (inactive) | GI50 (HCT-15): 16.4 µM

C=CCCCCCC(O)C(O)C/C=C\C/C=C\CC (stereo unspecified)
GI50 (CCRF-CEM): > 18.8 µM (inactive) | GI50 (OVCAR-8): > 18.8 µM (inactive) | GI50 (HOP-62): > 16.8 µM (inactive) | GI50 (OVCAR-3): > 18.8 µM (inactive) | GI50 (LOX IMVI): > 15.4 µM (inactive) | GI50 (HOP-92): > 18.8 µM (inactive) | GI50 (SR): > 9.66 µM (inactive) | GI50 (SK-OV-3): > 18.8 µM (inactive) | GI50 (K562): > 12 µM (inactive) | GI50 (HCT-116): > 18.8 µM (inactive) | GI50 (HT-29): > 18.8 µM (inactive) | GI50 (SK-MEL-28): > 18.8 µM (inactive) | GI50 (UO-31): > 18.8 µM (inactive) | GI50 (M14): > 18.8 µM (inactive) | GI50 (HCT-15): > 18.8 µM

Clc1cc2n[se]nc2cc1Cl
GI50 (CCRF-CEM): > 100 µM (inactive) | GI50 (OVCAR-8): > 100 µM (inactive) | GI50 (HOP-62): > 100 µM (inactive) | GI50 (LOX IMVI): > 100 µM (inactive) | GI50 (A498): > 100 µM (inactive) | GI50 (SR): > 100 µM (inactive) | GI50 (SK-OV-3): > 100 µM (inactive) | GI50 (K562): > 100 µM (inactive) | GI50 (HCT-116): > 100 µM (inactive) | GI50 (HT-29): > 100 µM (inactive) | GI50 (SK-MEL-28): > 100 µM (inactive) | GI50 (UO-31): > 100 µM (inactive) | GI50 (M14): > 100 µM (inactive) | GI50 (HCT-15): > 100 µM

O=C1c2ccccc2N2OC3(N4CCCC4)CCCC3C12c1ccccc1 (stereo unspecified)
GI50 (CCRF-CEM): > 100 µM (inactive) | GI50 (OVCAR-8): > 100 µM (inactive) | GI50 (HOP-62): > 100 µM (inactive) | GI50 (A498): > 100 µM (inactive) | GI50 (HOP-92): 34.8 µM (inactive) | GI50 (SR): 59.4 µM (inactive) | GI50 (SK-OV-3): > 100 µM (inactive) | GI50 (K562): 76.6 µM (inactive) | GI50 (HCT-116): 73.3 µM (inactive) | GI50 (HT-29): > 100 µM (inactive) | GI50 (SK-MEL-28): > 100 µM (inactive) | GI50 (UO-31): > 100 µM (inactive) | GI50 (M14): > 100 µM (inactive) | GI50 (HCT-15): > 100 µM

COc1cccc2c(SCC(=O)Nc3ccccc3-c3ccccc3NC(=O)CSc3c4ccccc4nc4c(OC)cccc34)c3ccccc3nc12
GI50 (CCRF-CEM): > 100 µM (inactive) | GI50 (OVCAR-8): > 100 µM (inactive) | GI50 (HOP-62): > 100 µM (inactive) | GI50 (OVCAR-3): > 100 µM (inactive) | GI50 (SR): 76.9 µM (inactive) | GI50 (K562): 74.3 µM (inactive) | GI50 (HCT-116): > 100 µM (inactive) | GI50 (HT-29): > 100 µM (inactive) | GI50 (SK-MEL-28): > 100 µM (inactive) | GI50 (M14): 60.1 µM (inactive) | GI50 (HCT-15): > 100 µM

NC1=NS(=O)(=O)Nc2nc(-c3ccc(Cl)cc3)c(-c3ccc(Cl)cc3)nc21
GI50 (CCRF-CEM): 82.4 µM (inactive) | GI50 (OVCAR-8): > 100 µM (inactive) | GI50 (HOP-62): > 100 µM (inactive) | GI50 (OVCAR-3): > 100 µM (inactive) | GI50 (LOX IMVI): 29.3 µM (inactive) | GI50 (HOP-92): > 100 µM (inactive) | GI50 (SR): > 100 µM (inactive) | GI50 (K562): 34 µM (inactive) | GI50 (HCT-116): > 100 µM (inactive) | GI50 (HT-29): > 100 µM (inactive) | GI50 (SK-MEL-28): > 100 µM (inactive) | GI50 (UO-31): > 100 µM (inactive) | GI50 (M14): > 100 µM (inactive)

CC1=C(C(=O)Nc2c(C)cccc2C)C(c2ccc3c(c2)OCO3)C(C(=O)Nc2c(C)cccc2C)=C(C)N1
GI50 (CCRF-CEM): 7.36 µM (inactive) | GI50 (OVCAR-8): 18.1 µM (inactive) | GI50 (HOP-62): 23.1 µM (inactive) | GI50 (OVCAR-3): 36.3 µM (inactive) | GI50 (LOX IMVI): 13.7 µM (inactive) | GI50 (SR): 22.5 µM (inactive) | GI50 (SK-OV-3): 77.3 µM (inactive) | GI50 (K562): 13.4 µM (inactive) | GI50 (HCT-116): 14.3 µM (inactive) | GI50 (HT-29): 16.2 µM (inactive) | GI50 (SK-MEL-28): 22.2 µM (inactive) | GI50 (UO-31): 16.9 µM (inactive) | GI50 (M14): 18.1 µM (inactive)

CCCCCC(CN1CCOCC1)C(=O)/C=C/c1ccccc1 (stereo unspecified)
GI50 (CCRF-CEM): 1.94 µM (inactive) | GI50 (HOP-62): 5 µM (inactive) | GI50 (OVCAR-3): 2.3 µM (inactive) | GI50 (LOX IMVI): 1.37 µM (inactive) | GI50 (HOP-92): 2.19 µM (inactive) | GI50 (SR): 1.95 µM (inactive) | GI50 (SK-OV-3): 2.71 µM (inactive) | GI50 (K562): 2.16 µM (inactive) | GI50 (HCT-116): 1.75 µM (inactive) | GI50 (HT-29): 2.67 µM (inactive) | GI50 (SK-MEL-28): 5.82 µM (inactive) | GI50 (UO-31): 6.61 µM (inactive) | GI50 (M14): 2 µM (inactive) | GI50 (HCT-15): 2.03 µM

O=S(O)CCCCSSCC(O)C(O)CSSCCCCS(=O)O (stereo unspecified)
GI50 (CCRF-CEM): 3.37 µM (inactive) and 3.21 µM (inactive) | GI50 (OVCAR-8): 30.1 µM (inactive) and 22.2 µM (inactive) | GI50 (HOP-62): > 100 µM (inactive) | GI50 (OVCAR-3): 11.4 µM (inactive) and 12.4 µM (inactive) | GI50 (LOX IMVI): 15.4 µM (inactive) and 10.8 µM (inactive) | GI50 (A498): 64.3 µM (inactive) and 61.9 µM (inactive) | GI50 (HOP-92): 26.4 µM (inactive) and 39.7 µM (inactive) | GI50 (SK-OV-3): > 100 µM (inactive) | GI50 (K562): 18.7 µM (inactive) and 12.6 µM (inactive) | GI50 (HT-29): 13.5 µM (inactive) and 9.16 µM (inactive) | GI50 (SK-MEL-28): 21.6 µM (inactive) and 14.9 µM (inactive) | GI50 (UO-31): 16.7 µM (inactive) and 9.33 µM (inactive) | GI50 (M14): 12.9 µM (inactive) and 9.08 µM (inactive) | GI50 (HCT-15): 30.5 µM and 29.6 µM

CCN(CC)CCCCC1CCN(CC(=O)N2c3ccccc3NC(=O)c3ccccc32)CC1
GI50 (CCRF-CEM): 64.9 µM (inactive) | GI50 (OVCAR-8): > 100 µM (inactive) | GI50 (HOP-62): > 100 µM (inactive) | GI50 (OVCAR-3): > 100 µM (inactive) | GI50 (A498): > 100 µM (inactive) | GI50 (HOP-92): > 100 µM (inactive) | GI50 (SR): > 100 µM (inactive) | GI50 (SK-OV-3): > 100 µM (inactive) | GI50 (K562): > 100 µM (inactive) | GI50 (HCT-116): > 100 µM (inactive) | GI50 (HT-29): 46.7 µM (inactive) | GI50 (SK-MEL-28): > 100 µM (inactive) | GI50 (UO-31): > 100 µM (inactive) | GI50 (M14): 19.4 µM (inactive)

[N-]=[N+]=NC1C(Cl)C(=O)NC(=O)N1[C@H]1C[C@H](O)[C@@H](CO)O1 (stereo partly specified)
GI50 (OVCAR-8): > 100 µM (inactive) | GI50 (HOP-62): > 100 µM (inactive) | GI50 (OVCAR-3): > 100 µM (inactive) | GI50 (LOX IMVI): > 100 µM (inactive) | GI50 (A498): > 100 µM (inactive) | GI50 (HOP-92): > 100 µM (inactive) | GI50 (SK-OV-3): > 100 µM (inactive) | GI50 (K562): > 100 µM (inactive) | GI50 (HT-29): > 100 µM (inactive) | GI50 (SK-MEL-28): > 100 µM (inactive) | GI50 (UO-31): > 100 µM (inactive) | GI50 (M14): > 100 µM (inactive)
